The numbers were not newly measured in patent EP0002485B1, “Process for the preparation of marking compositions containing tin” (HOECHST AKTIENGESELLSCHAFT, priority 1977, dated 1979), which cites them from elsewhere.

The conditions of data set [1]: time until optimum of skeletal accumulation.
The conditions of data set [2]: labelled with Tc-99m; compared with pyro- and polyphosphates.

In the case of Methylendiphosphonsäure [MDP], the “Anreicherung im Skelett erreicht das Optimum” value in data set [1] is “zwei”.

For the substance “1-Hydroxyäthan-1,1-diphosphonsäure [HEDP]”, the Plasmaclearance result in data set [2] is “bedeutend schnellere”.
